In patent publication US20240148821A1, “PHARMACEUTICAL USE OF CYCLIC PEPTIDE COMPOUND” (CHUGAI SEIYAKU KABUSHIKI KAISHA, priority 2021, published 2024):
Numbered stars: 1 amine (or outer) side, 2 acyl side, 3 side chain; on linkers, the order of the positions; unused ones are H or OH. Bridge positions count the residues as written; N and C are the ends. Square brackets hold non-standard residues; d marks the D form. Peptide text beside a SMILES is read from it. * marks the point of attachment. hPhe(3,5-F2-4-CF3) = N[C@@H](CCc1cc(F)c(C(F)(F)F)c(F)c1)C(=O)O; hPhe(3-Cl-4-CF3) = N[C@@H](CCc1ccc(C(F)(F)F)c(Cl)c1)C(=O)O; NEtPhe(4-CF3) = CCN[C@@H](Cc1ccc(C(F)(F)F)cc1)C(=O)O; NMePhe(4-CF3) = CN[C@@H](Cc1ccc(C(F)(F)F)cc1)C(=O)O; hPhe(4-CF3) = N[C@@H](CCc1ccc(C(F)(F)F)cc1)C(=O)O; NMePhe(4-Cl) = CN[C@@H](Cc1ccc(Cl)cc1)C(=O)O; NMePhe(4-Me) = CN[C@@H](Cc1ccc(C)cc1)C(=O)O; NMeNle(6-CHF2) = CN[C@@H](CCCCC(F)F)C(=O)O; NMedβ3hAla = C[C@H](CC(=O)[*:2])N(C)[*:1]; NMeGly(cPent) = CN[C@H](C(=O)O)C1CCCC1; Phe(3-I) = N[C@@H](Cc1cccc(I)c1)C(=O)O; NMeGly(cBu) = CN[C@H](C(=O)O)C1CCC1; NMeCha = CN[C@@H](CC1CCCCC1)C(=O)O; cisHyp = O=C(O)[C@@H]1C[C@H](O)CN1; Hyp = O=C(O)[C@@H]1C[C@@H](O)CN1; NMeChg = CN[C@H](C(=O)O)C1CCCCC1; NMeF = CN[C@@H](Cc1ccccc1)C(=O)O; NMeI = CC[C@H](C)[C@H](NC)C(=O)O; d(β3hL) = CC(C)C[C@@H](N)CC(=O)O; NMeD = CN[C@@H](CC(=O)O)C(=O)O; NMeL = CN[C@@H](CC(C)C)C(=O)O; NMeV = CN[C@H](C(=O)O)C(C)C; d(β3hA) = C[C@@H](N)CC(=O)O; NMeS = CN[C@@H](CO)C(=O)O; NPhGly = O=C(O)CNc1ccccc1; NMeA = CN[C@@H](C)C(=O)O; NMeAib = CNC(C)(C)C(=O)O; Piperidide = C1CCN(*)CC1; dNMeA = CN[C@H](C)C(=O)O; Ac5c = NC1(C(=O)O)CCCC1; Aze = O=C(O)[C@@H]1CCN1; Ethyl(2,2-F2) = FC(F)C*; Ac4c = NC1(C(=O)O)CCC1; X80 = FC1(F)CCCN(*)C1; Cyclopropyl = C1CC1*; Sar = CNCC(=O)O

Each compound was assayed against protein-protein interaction between Kras and SOS1 (biotin-tagged human Kras loaded with GDP, His-tagged human SOS1) (Homo sapiens (Human), UniProt P01116, G12D) (assay: Protein-protein interaction inhibition between Kras and SOS1 (KrasG12D-SOS PPI) using AlphaScreen). Settings: not given.
Format: biochemical

Row | SMILES | IC50 [nM]
1 | CC[C@H](C)[C@@H]1NC(=O)[C@H](CC(C)C)N(C)C(=O)C[C@@H](C(=O)N2CCCC(F)(F)C2)N(C)C(=O)[C@H](CC(C)C)NC(=O)C(C)(C)N(C)C(=O)[C@H](Cc2ccc(OC)cc2)NC(=O)[C@H](Cc2cccc(I)c2)NC(=O)CN(C)C(=O)[C@H](Cc2ccc(C)cc2)N(C)C(=O)CN(C)C(=O)CN(C)C1=O [Compound 2099, (3S,9S,12S,18S,27S,30S,34S)-34-(3,3-difluoropiperidine-1-carbonyl)-12-[(3-iodophenyl)methyl]-3,30-diisobutyl-9-[(4-methoxyphenyl)methyl]-1,6,6,7,16,19,22,25,31-nonamethyl-27-[(1S)-1-methylpropyl]-18-(p-tolylmethyl) 1,4,7,10,13,16,19,22,25,28,31-undecazacyclotetratriacontane-2,5,8,11,14,17,20,23,26,29,32-undecone] ([NMeL]I[Sar][Sar][NMePhe(4-Me)][Sar][Phe(3-I)]Y(Me)[NMeAib]L[NMeD]-X80; lactam N-11) | 25

Same assay, conditions: AlphaScreen; biotin-tagged human Kras loaded with GDP, His-tagged human SOS1; read-out: KRAS G12D-SOS PPI IC50

Row | SMILES | IC50 [nM]
2 | CC[C@H](C)[C@@H]1NC(=O)[C@H](CC(C)C)N(C)C(=O)C[C@@H](C)N(C)C(=O)[C@H](C(C)C)N(C)C(=O)C2(CCCC2)NC(=O)[C@@H]2CCCN2C(=O)[C@H](CCc2ccc(C(F)(F)F)c(Cl)c2)NC(=O)CN(C)C(=O)[C@H](CC2CCCCC2)N(C)C(=O)[C@@H]2CCN2C(=O)[C@H](C)N(C)C1=O [Compound 1800] (cyclo([Ac5c][NMeV][NMedβ3hAla][NMeL]I[NMeA][Aze][NMeCha][Sar][hPhe(3-Cl-4-CF3)]P)) | 11
3 | CC[C@H](C)[C@@H]1NC(=O)[C@H](CC(C)C)N(C)C(=O)C[C@@H](CC(C)C)NC(=O)[C@H]([C@@H](C)CC)N(C)C(=O)C2(CCCC2)NC(=O)[C@@H]2CCCN2C(=O)[C@H](CCc2cc(F)c(C(F)(F)F)c(F)c2)NC(=O)CN(C)C(=O)[C@H](Cc2ccc(C)cc2)N(C)C(=O)[C@@H]2CCN2C(=O)[C@H](C)N(C)C1=O [Compound 1891] (cyclo([Ac5c][NMeI][d(β3hL)][NMeL]I[NMeA][Aze][NMePhe(4-Me)][Sar][hPhe(3,5-F2-4-CF3)]P)) | 230
4 | CC[C@H](C)[C@@H]1NC(=O)[C@H](COC2CC2)N(C)C(=O)C[C@@H](C(=O)N2CCCCC2)N(C)C(=O)[C@H](C(C)C)N(C)C(=O)C2(CCCC2)NC(=O)[C@@H]2CCCN2C(=O)[C@H](CCc2ccc(C(F)(F)F)c(Cl)c2)NC(=O)CN(C)C(=O)[C@H](CC2CCCCC2)N(C)C(=O)[C@@H]2CCN2C(=O)[C@H](C)N(C)C1=O [Compound 1764] ([NMeS](Cyclopropyl)I[NMeA][Aze][NMeCha][Sar][hPhe(3-Cl-4-CF3)]P[Ac5c][NMeV][NMeD]-Piperidide; lactam N-11) | 3.2
5 | CC[C@H](C)[C@@H]1NC(=O)[C@H](CC(C)C)N(C)C(=O)C[C@@H](C)NC(=O)[C@H](C(C)C)N(C)C(=O)C2(CCCC2)NC(=O)[C@@H]2CCCN2C(=O)[C@H](CCc2ccc(C(F)(F)F)c(Cl)c2)NC(=O)CN(C)C(=O)[C@H](Cc2ccc(Cl)cc2)N(C)C(=O)[C@@H]2CCN2C(=O)CN(C)C1=O [Compound 207] (cyclo([Ac5c][NMeV][d(β3hA)][NMeL]I[Sar][Aze][NMePhe(4-Cl)][Sar][hPhe(3-Cl-4-CF3)]P)) | 3
6 | CC[C@H](C)[C@@H]1NC(=O)[C@H](CC2CCCCC2)N(C)C(=O)C[C@@H](C)NC(=O)[C@H](CC(C)C)N(C)C(=O)C2(CCCC2)NC(=O)[C@H](CC(C)C)N(C)C(=O)[C@H](CCc2ccc(C(F)(F)F)cc2)NC(=O)CN(C)C(=O)[C@H](Cc2ccc(Cl)cc2)N(C)C(=O)CN(C)C(=O)CN(C)C1=O [Compound 583] (cyclo([Ac5c][NMeL][d(β3hA)][NMeCha]I[Sar][Sar][NMePhe(4-Cl)][Sar][hPhe(4-CF3)][NMeL])) | 370
7 | CCO[C@@H]1C[C@H]2C(=O)NC3(CCC3)C(=O)N(C)[C@@H](C3CCCCC3)C(=O)N(C)[C@H](C)CC(=O)N(C)[C@@H](CC(C)C)C(=O)N[C@@H]([C@@H](C)CC)C(=O)N(C)[C@@H](C)C(=O)N3CC[C@H]3C(=O)N(C)[C@@H](Cc3ccc(C(F)(F)F)cc3)C(=O)N(C)CC(=O)N[C@@H](CCc3cc(F)c(C(F)(F)F)c(F)c3)C(=O)N2C1 [Compound 365] (cyclo([Ac4c][NMeChg][NMedβ3hAla][NMeL]I[NMeA][Aze][NMePhe(4-CF3)][Sar][hPhe(3,5-F2-4-CF3)][Hyp](Et))) | 38
8 | CC[C@H](C)[C@@H]1NC(=O)[C@H](CC(C)C)N(C)C(=O)C[C@@H](C(=O)N2CCCCC2)N(C)C(=O)[C@H](C2CCCCC2)N(C)C(=O)C2(CCCC2)NC(=O)[C@@H]2C[C@H](OCC(F)F)CN2C(=O)[C@H](CCc2ccc(C(F)(F)F)c(Cl)c2)NC(=O)CN(C)C(=O)[C@H](CC2CCCCC2)N(C)C(=O)CN(C)C(=O)CN(C)C1=O [Compound 2123] ([NMeL]I[Sar][Sar][NMeCha][Sar][hPhe(3-Cl-4-CF3)][cisHyp](Ethyl(2,2-F2))[Ac5c][NMeChg][NMeD]-Piperidide; lactam N-11) | 1.5
9 | CC[C@H](C)[C@@H]1NC(=O)[C@H](C)N(C)C(=O)C[C@@H](C)NC(=O)[C@H](CC(C)C)N(C)C(=O)[C@H](Cc2ccccc2)N(C)C(=O)[C@H](CC(C)C)NC(=O)[C@H](CCc2ccc(C(F)(F)F)cc2)NC(=O)CN(C)C(=O)[C@H](Cc2ccc(Cl)cc2)N(C)C(=O)CN(C)C(=O)CN(C)C1=O [Compound 271] (cyclo(I[Sar][Sar][NMePhe(4-Cl)][Sar][hPhe(4-CF3)]L[NMeF][NMeL][d(β3hA)][NMeA])) | 65
10 | CC[C@H](C)[C@@H]1NC(=O)[C@H](C2CCCCC2)N(C)C(=O)C[C@@H](C)NC(=O)[C@H](C(C)C)N(C)C(=O)C2(CCCC2)NC(=O)[C@@H]2CCCN2C(=O)[C@H](CCc2ccc(C(F)(F)F)c(Cl)c2)NC(=O)CN(C)C(=O)[C@H](CC2CCCCC2)N(C)C(=O)[C@@H]2CCN2C(=O)[C@H](C)N(C)C1=O [Compound 873] (cyclo([Ac5c][NMeV][d(β3hA)][NMeChg]I[NMeA][Aze][NMeCha][Sar][hPhe(3-Cl-4-CF3)]P)) | 51
11 | CC[C@H](C)[C@@H]1NC(=O)[C@H](CC(C)C)N(C)C(=O)C[C@@H](CC(C)C)NC(=O)[C@H]([C@@H](C)CC)N(C)C(=O)C2(CCCC2)NC(=O)[C@@H]2CCCN2C(=O)[C@H](CCc2ccc(C(F)(F)F)c(Cl)c2)NC(=O)CN(C)C(=O)[C@H](CC2CCCCC2)N(C)C(=O)[C@@H]2CCN2C(=O)[C@H](C)N(C)C1=O [Compound 798] (cyclo([Ac5c][NMeI][d(β3hL)][NMeL]I[NMeA][Aze][NMeCha][Sar][hPhe(3-Cl-4-CF3)]P)) | 59
12 | CC[C@H](C)[C@@H]1NC(=O)[C@H](C)N(C)C(=O)C[C@@H](C)NC(=O)[C@H](C(C)C)N(C)C(=O)C2(CCCC2)NC(=O)[C@@H]2CCCN2C(=O)[C@H](CCc2ccc(C(F)(F)F)c(Cl)c2)NC(=O)[C@@H](C)N(C)C(=O)[C@H](CC2CCCCC2)N(C)C(=O)[C@@H]2CCN2C(=O)CN(C)C1=O [Compound 601] (cyclo([Ac5c][NMeV][d(β3hA)][NMeA]I[Sar][Aze][NMeCha][dNMeA][hPhe(3-Cl-4-CF3)]P)) | 87
13 | CC[C@H](C)[C@@H]1NC(=O)[C@H](C)N(C)C(=O)C[C@@H](C)NC(=O)[C@H](C2CCCC2)N(C)C(=O)C2(CCCC2)NC(=O)[C@@H]2CCCN2C(=O)[C@H](CCc2ccc(C(F)(F)F)c(Cl)c2)NC(=O)CN(C)C(=O)[C@H](Cc2ccc(C)cc2)N(C)C(=O)[C@@H]2CCN2C(=O)[C@H](C)N(C)C1=O [Compound 1514] (cyclo([Ac5c][NMeGly(cPent)][d(β3hA)][NMeA]I[NMeA][Aze][NMePhe(4-Me)][Sar][hPhe(3-Cl-4-CF3)]P)) | 1
14 | CC[C@H](C)[C@@H]1NC(=O)[C@H](C)N(C)C(=O)C[C@@H](C)N(C)C(=O)[C@H](C2CCC2)N(C)C(=O)C(C)(C)N(C)C(=O)CN(c2ccccc2)C(=O)[C@H](CCc2ccc(C(F)(F)F)c(Cl)c2)NC(=O)CN(C)C(=O)[C@H](C2CCC2)N(C)C(=O)[C@@H]2CCN2C(=O)[C@H](C)N(C)C1=O [Compound 2148] (cyclo([Aze][NMeGly(cBu)][Sar][hPhe(3-Cl-4-CF3)][NPhGly][NMeAib][NMeGly(cBu)][NMedβ3hAla][NMeA]I[NMeA])) | 63
15 | CC[C@H](C)[C@@H]1NC(=O)[C@H](CCCCC(F)F)N(C)C(=O)C[C@@H](C(=O)N2CCCCC2)N(C)C(=O)[C@H](C(C)C)N(C)C(=O)C2(CCCC2)NC(=O)[C@@H]2CCCN2C(=O)[C@H](CCc2ccc(C(F)(F)F)c(Cl)c2)NC(=O)CN(C)C(=O)[C@H](CC2CCCCC2)N(C)C(=O)[C@@H]2CCN2C(=O)[C@H](C)N(C)C1=O [Compound 94] ([NMeNle(6-CHF2)]I[NMeA][Aze][NMeCha][Sar][hPhe(3-Cl-4-CF3)]P[Ac5c][NMeV][NMeD]-Piperidide; lactam N-11) | 3.3
16 | CC[C@H](C)[C@@H]1NC(=O)[C@H](CC(C)C)N(C)C(=O)C[C@@H](C)N(C)C(=O)[C@H]([C@@H](C)CC)N(C)C(=O)C2(CCCC2)NC(=O)[C@@H]2CCCN2C(=O)[C@H](CCc2ccc(C(F)(F)F)c(Cl)c2)NC(=O)CN(C)C(=O)[C@H](C2CCCC2)N(C)C(=O)[C@@H]2CCN2C(=O)[C@H](C)N(C)C1=O [Compound 79] (cyclo([Ac5c][NMeI][NMedβ3hAla][NMeL]I[NMeA][Aze][NMeGly(cPent)][Sar][hPhe(3-Cl-4-CF3)]P)) | 9.3
17 | CC[C@H](C)[C@@H]1NC(=O)[C@H](CC(C)C)N(C)C(=O)C[C@@H](C)N(C)C(=O)[C@H]([C@@H](C)CC)N(C)C(=O)C2(CCCC2)NC(=O)[C@@H]2CCCN2C(=O)[C@H](CCc2ccc(C(F)(F)F)c(Cl)c2)NC(=O)CN(C)C(=O)[C@H](Cc2ccc(C(F)(F)F)cc2)N(CC)C(=O)[C@@H]2CCN2C(=O)[C@H](C)N(C)C1=O [Compound 898] (cyclo([Ac5c][NMeI][NMedβ3hAla][NMeL]I[NMeA][Aze][NEtPhe(4-CF3)][Sar][hPhe(3-Cl-4-CF3)]P)) | 12
